Patent publication US9522197B2, “Nanoparticles comprising a cyclodextrin and a biologically active molecule and uses thereof” (INNOUP FARMA, S.L., priority 2007, dated 2016)

Experiment: Quantification of cyclodextrin associated with the nanoparticles (HPLC-ELSD)
Assay type: physicochemical
Conditions: PVM/MA 100 mg, cyclodextrin 25 mg, incubation 30 min; n=12
Experimental: The analysis was conducted in a 1100 series LC model chromatograph (Agilent, Waldbornn, Germany) and the data was analyzed in a Hewlett-Packard computer by means of the Chem-Station G2171 program (Agueros et al., J. Pharm. and Biomed. Anal., 39 (2005) 495-502).
For the sample analysis, the supernatants obtained after the purification process of the nanoparticles were diluted up to 10 ml with purified water. After adding the internal standard (PEG 6000), 1 ml aliquots of supernatant were taken as a sample. The samples were analyzed using a Zorbax Eclipse XDB-Phenyl column (Agilent 150 mm×2.1 mm) and a mixture of water/acetonitrile in a gradient (see Table 1) as a mobile phase at a flow of 0.25 ml/min.
The conditions of the detector (ELSD) were optimized until achieving the maximum sensitivity according to the gradient used in the mobile phase (Nebulizer Temperature: 115° C.; Nitrogen Flow: 3.2 ml/min). The chromatographic separation of the different cyclodextrins, of PVM/MA and of the internal standard (PEG 6000) was carried out in less than 15 minutes. The retention times were:
In the case of the quantification of aminated cyclodextrin [e.g. 6-monodeoxy-6-monoamino-β-cyclodextrin (NH-β-CD)] associated to the nanoparticles, a variant of the above described method was used to prevent the overlapping of the peaks of the cyclodextrin and the polymer. Therefore, the samples were analyzed using an NH2-Zorbax column (Agilent 4.6×150 mm, 5 μm), heated to 40° C. and a mixture of methanol/water (80/20 v/v) as a mobile phase at a flow of 1 ml/min. The conditions of the detector (ELSD) were the following: Nebulizer Temperature: 71° C. and Nitrogen Flow: 1.9 ml/min. The chromatographic separation of 6-monodeoxy-6-monoamino-β-cyclodextrin was carried out in less than 7 minutes. The retention time was 3.8±0.07 minutes.
Finally, the amount of cyclodextrin (CD) associated to the nanoparticles was calculated as the difference between the amount of CD initially added and the amount of CD quantified in the supernatants.

| Associated CD | Compound |
| --- | --- |
| ~70 µg/mg | 2-hydroxypropyl-β-cyclodextrin [OH-β-CD] |
| ~70 µg/mg | NC[C@H]1O[C@@H]2O[C@H]3[C@H](O)[C@@H](O)[C@@H](O[C@H]4[C@H](O)[C@@H](O)[C@@H](O[C@H]5[C@H](O)[C@@H](O)[C@@H](O[C@H]6[C@H](O)[C@@H](O)[C@@H](O[C@H]7[C@H](O)[C@@H](O)[C@@H](O[C@H]8[C@H](O)[C@@H](O)[C@@H](O[C@H]1[C@H](O)[C@H]2O)O[C@@H]8CO)O[C@@H]7CO)O[C@@H]6CO)O[C@@H]5CO)O[C@@H]4CO)O[C@@H]3CO [NH-β-CD, 6-monodeoxy-6-monoamino-β-cyclodextrin] |
| about 90 μg/mg | OC[C@H]1O[C@@H]2O[C@H]3[C@H](O)[C@@H](O)[C@@H](O[C@H]4[C@H](O)[C@@H](O)[C@@H](O[C@H]5[C@H](O)[C@@H](O)[C@@H](O[C@H]6[C@H](O)[C@@H](O)[C@@H](O[C@H]7[C@H](O)[C@@H](O)[C@@H](O[C@H]8[C@H](O)[C@@H](O)[C@@H](O[C@H]1[C@H](O)[C@H]2O)O[C@@H]8CO)O[C@@H]7CO)O[C@@H]6CO)O[C@@H]5CO)O[C@@H]4CO)O[C@@H]3CO [β-CD, β-cyclodextrin] |
